Experimental data as given in US20140135310A1, “SULPHONAMIDE DERIVATIVES OF ALICYCLIC AMINES FOR THE TREATMENT OF CENTRAL NERVOUS SYSTEM DISEASES” (Adamed Sp. z o.o., priority 2011, published 2014).

How the values were obtained:
[1] = target: dopaminergic receptors D3 (Homo sapiens, UniProt P35462); assay: Radioligand binding assay, dopaminergic D3 receptors; details: test compound 1×10^−6 M
In short: (§1)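 Scintillation read-out. Specific = total − nonspecific (excess cold ligand). Data as % of control specific binding / % inhibition; IC50 by Hill fit; Ki = IC50/(1+L/KD), KD from Scatchard plot.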

[2] = target: T1, 5-HT1A receptor (rat hippocampus) (Rattus norvegicus, UniProt P19327); assay: Radioligand binding assay, serotoninergic 5-HT1A receptors; details: binding assay result in %, Table 5a;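 also: test compound at 1 µM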
T1 construct: hippocampus; from tissue; host or cells: rat hippocampus
T1 sequence (P19327 1-422): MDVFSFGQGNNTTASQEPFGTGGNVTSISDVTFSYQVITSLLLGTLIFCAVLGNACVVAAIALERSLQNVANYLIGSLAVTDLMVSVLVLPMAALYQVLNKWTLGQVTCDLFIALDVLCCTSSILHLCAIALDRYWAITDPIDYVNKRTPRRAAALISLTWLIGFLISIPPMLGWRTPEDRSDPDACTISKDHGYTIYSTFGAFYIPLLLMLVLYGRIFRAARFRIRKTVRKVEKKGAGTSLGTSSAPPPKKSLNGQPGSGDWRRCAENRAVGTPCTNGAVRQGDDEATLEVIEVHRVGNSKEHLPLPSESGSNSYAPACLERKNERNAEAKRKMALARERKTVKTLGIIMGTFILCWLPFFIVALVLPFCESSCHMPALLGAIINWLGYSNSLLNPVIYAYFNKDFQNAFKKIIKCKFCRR

5-HT7 receptor = target: T2, 5-HT7 receptor (Homo sapiens, UniProt P34969); assay: Radioligand binding assay, serotoninergic 5-HT7 receptors; details: binding assay result in %, Table 5a;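 also: test compound at 1 µM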
T2 construct: purchased PerkinElmer
T2 sequence (P34969 whole entry): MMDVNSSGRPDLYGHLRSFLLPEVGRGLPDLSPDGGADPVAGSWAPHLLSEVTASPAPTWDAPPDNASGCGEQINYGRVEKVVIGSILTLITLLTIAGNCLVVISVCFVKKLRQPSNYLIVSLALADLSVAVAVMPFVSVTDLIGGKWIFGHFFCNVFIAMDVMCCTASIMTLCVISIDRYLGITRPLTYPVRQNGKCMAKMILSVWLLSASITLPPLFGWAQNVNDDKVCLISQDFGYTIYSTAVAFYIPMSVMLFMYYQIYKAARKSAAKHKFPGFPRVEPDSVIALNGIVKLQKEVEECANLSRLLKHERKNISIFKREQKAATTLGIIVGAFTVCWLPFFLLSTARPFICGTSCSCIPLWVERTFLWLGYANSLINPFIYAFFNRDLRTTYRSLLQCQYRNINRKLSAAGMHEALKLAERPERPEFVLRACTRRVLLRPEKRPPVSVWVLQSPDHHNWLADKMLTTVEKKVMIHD
In short: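 Ki values used the Cheng–Prusoff equation, with KD from Scatchard analysis, applied to IC50 from Hill fits of human 5-HT7 radioligand competition curves. Bound radioligand was counted by scintillation, and excess unlabelled ligand set the non-specific binding.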

[3] = target: T3, serotonin transporter (SERT) (Homo sapiens, UniProt P31645); assay: Radioligand binding assay, serotonin transporter (SERT); details: binding assay, test compound 1×10^−6 M
T3 construct: expressed in transfected cells; host or cells: CHO cells
T3 sequence (P31645 whole entry): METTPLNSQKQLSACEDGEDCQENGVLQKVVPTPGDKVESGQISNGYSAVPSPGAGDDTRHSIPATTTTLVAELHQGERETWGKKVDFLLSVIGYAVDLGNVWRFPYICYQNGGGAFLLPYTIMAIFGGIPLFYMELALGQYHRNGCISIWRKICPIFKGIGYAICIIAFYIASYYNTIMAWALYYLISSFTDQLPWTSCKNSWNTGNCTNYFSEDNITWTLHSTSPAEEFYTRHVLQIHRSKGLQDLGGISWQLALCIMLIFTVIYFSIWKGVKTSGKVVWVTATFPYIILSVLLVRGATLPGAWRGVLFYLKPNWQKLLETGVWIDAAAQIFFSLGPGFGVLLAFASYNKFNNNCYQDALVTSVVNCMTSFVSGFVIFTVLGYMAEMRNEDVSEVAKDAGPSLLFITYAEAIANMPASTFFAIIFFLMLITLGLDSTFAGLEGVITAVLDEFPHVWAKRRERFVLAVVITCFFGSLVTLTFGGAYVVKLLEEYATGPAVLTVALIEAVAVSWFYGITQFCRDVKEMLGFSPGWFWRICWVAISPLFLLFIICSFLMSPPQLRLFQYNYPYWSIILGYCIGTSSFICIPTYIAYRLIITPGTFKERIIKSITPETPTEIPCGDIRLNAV
In short: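 Values are derived from competition curves fitted by the Hill equation to give IC50, then converted to Ki by Cheng-Prusoff with radioligand Kd from Scatchard analysis. Specific binding equals total minus non-specific (excess cold ligand), counted by scintillation, and is also expressed as percent inhibition of control.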

5-HT6 receptor = target: T4, 5-HT6 receptor (Homo sapiens, UniProt P50406); assay: Radioligand binding assay, serotoninergic 5-HT6 receptors; details: binding assay result in %, Table 5a;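 also: test compound at 1 µM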
T4 construct: purchased PerkinElmer
T4 sequence (P50406 whole entry): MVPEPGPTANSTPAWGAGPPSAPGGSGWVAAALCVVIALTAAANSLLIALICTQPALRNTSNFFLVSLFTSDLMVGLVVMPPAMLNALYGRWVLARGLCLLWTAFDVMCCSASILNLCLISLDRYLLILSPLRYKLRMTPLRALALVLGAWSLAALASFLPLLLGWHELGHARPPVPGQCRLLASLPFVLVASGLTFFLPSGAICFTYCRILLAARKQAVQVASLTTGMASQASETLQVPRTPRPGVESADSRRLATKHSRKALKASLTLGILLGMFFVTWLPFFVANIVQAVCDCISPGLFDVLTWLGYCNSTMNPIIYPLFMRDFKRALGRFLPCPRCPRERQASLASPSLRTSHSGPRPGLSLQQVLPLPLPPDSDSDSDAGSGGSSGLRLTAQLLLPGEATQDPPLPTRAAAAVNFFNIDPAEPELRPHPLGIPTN
In short: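 Values are Ki from Cheng–Prusoff, taking IC50 from Hill nonlinear regression of competition curves and KD from a Scatchard plot. Specific binding was total minus binding with excess unlabelled ligand. Radioligand displacement was detected by scintillation counting, and data were also reported as percent of control specific binding.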

[4] = target: dopaminergic receptors D2 (Homo sapiens, UniProt P14416); assay: Radioligand binding assay, dopaminergic D2 receptors; details: binding assay, test compound 1×10^−6 M
Sequence of dopaminergic receptors D2 (P14416 whole entry): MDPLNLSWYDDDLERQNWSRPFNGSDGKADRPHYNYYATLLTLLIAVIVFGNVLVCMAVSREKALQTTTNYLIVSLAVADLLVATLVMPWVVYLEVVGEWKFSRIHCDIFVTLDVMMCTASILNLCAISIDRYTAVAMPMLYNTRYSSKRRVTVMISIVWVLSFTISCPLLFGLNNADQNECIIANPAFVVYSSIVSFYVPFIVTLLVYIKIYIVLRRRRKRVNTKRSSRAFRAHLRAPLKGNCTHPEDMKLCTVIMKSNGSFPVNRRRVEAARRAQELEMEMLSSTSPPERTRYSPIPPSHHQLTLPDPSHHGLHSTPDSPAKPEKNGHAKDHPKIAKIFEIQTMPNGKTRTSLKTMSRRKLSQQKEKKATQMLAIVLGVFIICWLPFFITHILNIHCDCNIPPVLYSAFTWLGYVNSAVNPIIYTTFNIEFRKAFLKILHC
In short: as §1

[5] = system: α1 adrenergic receptors (rat cerebral cortex); assay: Radioligand binding assay, adrenergic α1 receptors; details: test compound 1×10^−6 M
In short: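 Values derive from radioligand displacement, with non-specific binding defined by excess cold ligand and detection by scintillation. Hill-fit IC50s were converted to Ki via Cheng-Prusoff using Scatchard-derived Kd; percent inhibition of control specific binding also reported.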

5-HT2A receptor = target: T5, 5-HT2A receptor (Homo sapiens, UniProt P28223); assay: Radioligand binding assay, serotoninergic 5-HT2A receptors; details: binding assay result in %, Table 5a
T5 construct: purchased PerkinElmer
T5 sequence (P28223 whole entry): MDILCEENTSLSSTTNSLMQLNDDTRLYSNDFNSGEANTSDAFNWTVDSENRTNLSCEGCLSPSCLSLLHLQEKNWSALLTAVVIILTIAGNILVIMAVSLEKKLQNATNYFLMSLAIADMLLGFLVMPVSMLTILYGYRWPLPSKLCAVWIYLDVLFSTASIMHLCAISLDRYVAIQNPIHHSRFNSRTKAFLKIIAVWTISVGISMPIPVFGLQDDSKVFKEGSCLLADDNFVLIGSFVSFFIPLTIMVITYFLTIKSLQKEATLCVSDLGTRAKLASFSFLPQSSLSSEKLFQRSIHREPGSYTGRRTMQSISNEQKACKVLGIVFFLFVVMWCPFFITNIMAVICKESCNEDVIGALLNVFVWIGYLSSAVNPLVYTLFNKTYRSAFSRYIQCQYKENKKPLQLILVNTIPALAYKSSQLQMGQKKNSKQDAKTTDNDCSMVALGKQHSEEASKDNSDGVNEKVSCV
In short: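 Competition curves from scintillation-counted specific binding (total minus binding with excess unlabelled ligand) were Hill-fitted to give IC50, converted to Ki via Cheng-Prusoff using Scatchard-derived Kd.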

Sequence of dopaminergic receptors D3 (P35462 whole entry): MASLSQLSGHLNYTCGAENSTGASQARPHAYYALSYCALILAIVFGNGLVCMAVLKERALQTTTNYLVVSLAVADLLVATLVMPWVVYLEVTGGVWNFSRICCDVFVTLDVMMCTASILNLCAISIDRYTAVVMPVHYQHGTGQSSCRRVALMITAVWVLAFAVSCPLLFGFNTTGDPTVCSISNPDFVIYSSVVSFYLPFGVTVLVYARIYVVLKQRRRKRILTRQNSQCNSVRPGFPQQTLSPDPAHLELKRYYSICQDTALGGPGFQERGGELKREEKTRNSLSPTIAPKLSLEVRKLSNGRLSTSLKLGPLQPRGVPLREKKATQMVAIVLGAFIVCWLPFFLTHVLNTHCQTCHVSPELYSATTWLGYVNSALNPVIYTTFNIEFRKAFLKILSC

SMILES | inhibition at 1 µM [1] [%] | inhibition at 1 µM [2] [%] | inhibition at 1 µM (5-HT7 receptor) [%] | inhibition at 1 µM [3] [%] | inhibition at 1 µM (5-HT6 receptor) [%] | inhibition at 1 µM [4] [%] | α1 [%] [5] [%] | inhibition at 1 µM (5-HT2A receptor) [%] | D3 [%] [1] [%] | 5-HT1A [%] [2] [%] | 5-HT7 [%] (5-HT7 receptor) | SERT [%] [3] [%] | 5-HT6 [%] (5-HT6 receptor) | D2 [%] [4] [%] | 5-HT2A [%] (5-HT2A receptor)
O=S(=O)(NCC1CN(CCOc2cccc3c2OCCO3)C1)c1ccsc1 [Compound 191, N-[[1-[2-(2,3-Dihydro-1,4-benzodioxin-5-yloxy)ethyl]azetidin-3-yl]methyl]-thiophene-3-sulphonamide] | 25 | 98 | 93 | 32 | 5 | 7 | 54 | 42 | – | – | – | – | – | – | –
O=S(=O)(NCC1CN(CCOc2cccc3c2OCCO3)C1)c1ccc(Br)cc1 [Compound 185, 4-Bromo-N-[[1-[2-(2,3-dihydro-1,4-benzodioxin-5-yloxy)ethyl]azetidin-3-yl]methyl]benzenesulphonamide] | 0 | 88 | 90 | 23 | 23 | 25 | 34 | 39 | – | – | – | – | – | – | –
O=S(=O)(NCC1CN(CCCc2c[nH]c3ccc(Cl)cc23)C1)c1ccc2ccccc2c1 [Compound 161, N-[[1-[3-(5-Chloro-1H-indol-3-yl)propyl]azetidin-3-yl]methyl]naphthalene-2-sulphonamide] | 75 | 86 | 83 | 66 | 87 | 84 | 46 | 88 | – | – | – | – | – | – | –
O=S(=O)(NCC1CCN(CCOc2cccc3c2OCCO3)C1)c1ccc2scnc2c1 (centres unmarked) [Compound 285, N-[[1-[2-(2,3-Dihydro-1,4-benzodioxin-5-yloxy)ethyl]pyrrolidin-3-yl]methyl]-1,3-benzothiazole-5-sulphonamide] | 18 | 62 | 86 | 60 | 34 | 24 | 69 | 77 | – | – | – | – | – | – | –
O=S(=O)(NCC1CN(CCOc2cccc3c2OCCO3)C1)c1csc2ccccc12 [Compound 190, N-[[1-[2-(2,3-Dihydro-1,4-benzodioxin-5-yloxy)ethyl]azetidin-3-yl]methyl]-benzothiophene-3-sulphonamide] | 62 | 100 | 97 | 31 | 34 | 51 | 86 | 68 | – | – | – | – | – | – | –
O=S(=O)(NCC1CN(CCOc2nsc3ccccc23)C1)c1ccc2ccccc2c1 [Compound 162, N-[[1-[2-(1,2-Benzothiazol-3-yloxy)ethyl]azetidin-3-yl]methyl]-naphthalene-2-sulphonamide] | 100 | 85 | 91 | -9 | -56 | 61 | 83 | -17 | – | – | – | – | – | – | –
O=S(=O)(NCC1CCN(CCOc2cccc3ccccc23)C1)c1ccc(F)c(Cl)c1 (centres unmarked) [Compound 277, 3-Chloro-4-fluoro-N-[[1-[2-(1-naphthyloxy)ethyl]pyrrolidin-3-yl]methyl]benzenesulphonamide] | 90 | 85 | 108 | 68 | 93 | 34 | 21 | 85 | – | – | – | – | – | – | –
O=S(=O)(NC1CCN(CCCc2noc3cc(F)ccc23)C1)c1ccc(F)cc1 (centres unmarked) [Compound 8, 4-Fluoro-N-[1-[3-(6-fluoro-1,2-benzoxazol-3-yl)propyl]pyrrolidin-3-yl]benzenesulphonamide] | 18 | 5 | 85 | -13 | 64 | 72 | 95 | 97 | – | – | – | – | – | – | –
O=S(=O)(NCC1CN(CCOc2cccc3c2OCCO3)C1)c1ccc2cc(Cl)ccc2c1 [Compound 174, 6-Chloro-N-[[1-[2-(2,3-dihydro-1,4-benzodioxin-5-yloxy)ethyl]azetidin-3-yl]methyl]naphthalene-2-sulphonamide] | 22 | 91 | 90 | 20 | 64 | 25 | 15 | 44 | – | – | – | – | – | – | –
O=S(=O)(NCC1CCN(CCOc2cccc3ccccc23)C1)c1ccc(F)c(F)c1 (centres unmarked) [Compound 278, 3,4-Difluoro-N-[[1-[2-(1-naphthyloxy)ethyl]pyrrolidin-3-yl]methyl]benzenesulphonamide] | 94 | 84 | 102 | 91 | 85 | 31 | 37 | 91 | – | – | – | – | – | – | –
O=S(=O)(NC1CCN(CCCc2noc3cc(F)ccc23)C1)c1ccc(-c2ccccc2)cc1 (centres unmarked) [Compound 195, N-[1-[3-(6-Fluoro-1,2-benzoxazol-3-yl)propyl]pyrrolidin-3-yl]-4-phenyl-benzenesulphonamide] | 82 | 47 | 86 | 7 | 86 | 93 | 79 | 101 | – | – | – | – | – | – | –
O=S(=O)(NCC1CN(CCCc2c[nH]c3ccc(F)cc23)C1)c1ccc2ccccc2c1 [Compound 160, N-[[1-[3-(5-Fluoro-1H-indol-3-yl)propyl]azetidin-3-yl]methyl]naphthalene-2-sulphonamide] | 87 | 76 | 75 | 100 | 83 | 86 | 49 | 97 | – | – | – | – | – | – | –
Cn1ccc2c(S(=O)(=O)NCC3CCN(CCOc4cccc5ccccc45)C3)cccc21 (centres unmarked) [Compound 275, 1-Methyl-N-[[1-[2-(1-naphthyloxy)ethyl]pyrrolidin-3-yl]methyl]indole-4-sulphonamide] | 94 | 86 | 111 | 93 | 84 | 66 | 53 | 91 | – | – | – | – | – | – | –
O=S(=O)(NC1CCN(CCOc2cccc3[nH]ccc23)CC1)c1ccc2ccccc2c1 [Compound 61, N-[1-[2-(1H-Indol-4-yloxy)ethyl]-4-piperidine]naphthalene-2-sulphonamide] | – | – | – | – | – | – | 79 | – | 83 | 77 | 95 | 43 | 71 | 39 | 92
O=S(=O)(NC1CCN(CCCc2noc3cc(F)ccc23)C1)c1cnc2ccccn12 (centres unmarked) [Compound 30, N-[1-[3-(6-Fluoro-1,2-benzoxazol-3-yl)propyl]pyrrolidin-3-yl]imidazo-[1,2-a]pyridine-3-sulphonamide] | -2 | 5 | 82 | 36 | 77 | 62 | 84 | 95 | – | – | – | – | – | – | –
O=S(=O)(NCC1CN(CCOc2cccc3ccccc23)C1)c1ccc(F)c(F)c1 [Compound 173, 3,4-Difluoro-N-[[1-[2-(1-naphthyloxy)ethyl]azetidin-3-yl]methyl]-benzenesulphonamide] | 99 | 83 | 105 | 50 | 91 | 59 | 56 | 73 | – | – | – | – | – | – | –
